Source: patent US6833456B2, “Indolyl-urea derivatives of thienopyridines useful as antiangiogenic agents, and methods for their use” (Agouron Pharmaceuticals, Inc., priority 2002, dated 2004)
Several values for one entry are separate records, joined by “and”; a condition that tells them apart may be missing. Identical values can stand only once. Blank lines part the entries; values can stand above or below the compound they belong to.

How the values were obtained:
[1] = molecular target: T1, unphosphorylated VEGF-R2Δ50 (FLVK) (Homo sapiens, UniProt P35968, DEL940-989/E990V); test: VEGF-R2 coupled spectrophotometric assay, unphosphorylated construct (FLVK); type: biochemical; details: for inhibition at 0.05 µM: percent inhibition at 50 nM
T1 construct: VEGF-R2Δ50 contains residues 806-939 and 990-1171; made in house; host or cells: baculovirus/insect cell system
T1 sequence (P35968 with tags, fused parts or gaps DEL940-989/E990V limits assumed): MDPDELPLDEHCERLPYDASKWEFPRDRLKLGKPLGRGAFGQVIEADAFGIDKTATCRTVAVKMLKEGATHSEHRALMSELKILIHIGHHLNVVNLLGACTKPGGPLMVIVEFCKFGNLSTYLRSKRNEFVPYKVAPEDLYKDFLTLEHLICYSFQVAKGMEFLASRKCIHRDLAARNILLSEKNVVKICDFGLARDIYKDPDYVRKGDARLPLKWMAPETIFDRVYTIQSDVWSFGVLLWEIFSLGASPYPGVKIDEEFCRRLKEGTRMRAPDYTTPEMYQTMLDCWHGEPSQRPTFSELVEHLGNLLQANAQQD
Outline: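 Human VEGF-R2Δ50 cytosolic kinase (residues 806-939/990-1171, E990V), baculovirus-expressed, unphosphorylated form. PK/LDH-coupled NADH oxidation at 340 nm with 20 mM poly(E4Y1), 3 mM ATP, 60 mM MgCl2, 2 mM MnCl2, 200 mM HEPES pH 7.5, 5-40 nM enzyme; Ki fitted by Morrison equation.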

Mouse PK assay = type: in vivo, B6 female mice; details: po; for AUC / Cmax: female, B6, mouse, plasma, 50 mg/kg; for Cmax: p.o., read-out: Mouse Cmax, po ng-h/mL
Outline: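 Plasma levels were measured by HPLC with UV detection after acetonitrile precipitation, using extracted standards, in blood taken up to 4 h (0.5, 1, 2, 4 h) post-dose. Dosing: 50 mg/kg orally or intraperitoneally to two groups of four female B6 mice, vehicle PEG 400:acidified H2O 30:70 suspension.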

[2] = Human liver microsome (HLM) assay; type: in vitro ADME; details: human liver microsomes
Experimental: Compound metabolism in human liver microsomes was measured by LC-MS analytical assay procedures as follows. First, human liver microsomes (HLM) were thawed and diluted to 5 mg/mL with cold 100 mM potassium phosphate (KPO4) buffer. Appropriate amounts of KPO4 buffer, NADPH-regenerating solution (containing B-NADP, glucose-6-phosphate, glucose-6-phosphate dehydrogenase, and MgCl2), and HLM were preincubated in 13×100 mm glass tubes at 37° C. for 10 min. (3 tubes per test compound—triplicate). Test compound (5 μM final) was added to each tube to initiate reaction and was mixed by gentle vortexing, followed by incubation at 37° C. […] Samples were centrifuged at 4000 rpm for 20 min. to precipitate proteins and salt (Beckman Allegra 6KR, S/N ALK98DO6, #634). Supernatant was transferred to new 12×75 mm glass tubes and evaporated by Speed-Vac centrifugal vacuum evaporator. Samples were reconstituted in 200 μL 0.1% formic acid/acetonitrile (90/10) and vortexed vigorously to dissolve. The samples were then transferred to separate polypropylene microcentrifuge tubes and centrifuged at 14000×g for 10 min. (Fisher Micro 14, S/N M0017580). […]
The combined compound samples were injected into the LC-MS system, composed of a Hewlett-Packard HP1100 diode array HPLC and a Micromass Quattro II triple quadruple mass spectrometer operating in positive electrospray SIR mode (programmed to scan specifically for the molecular ion of each test compound). Each test compound peak was integrated at each timepoint. […]

[3] = system: human umbilical vein endothelial cells (HUVEC); test: HUVEC+VEGF proliferation assay; type: cell-based; details: Homo sapiens, HUVEC, 72 h, VEGF 6 ng/mL, MTT
Outline: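 HUVEC (passage 3-4), serum-starved 24 h in F12K + 1% FBS, were pre-treated with compound for 1 h (0.1% DMSO final). They were then stimulated with VEGF at 6 ng/mL final. Proliferation was measured after 72 h by MTT dye reduction (4 h), with absorbance read at 595 nm.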

KDR (VEGFR2) = molecular target: T2, KDR (VEGFR2) (Homo sapiens, UniProt P35968); test: KDR (VEGFR2) phosphorylation in PAE-KDR cells assay; type: cell-based; details: PAE cells overexpressing human KDR, VEGF stimulated; read-out: PAE KDR autophos IC50
T2 construct: expressed in transfected cells; host or cells: porcine aorta endothelial (PAE) cells
T2 sequence (P35968 20-1356): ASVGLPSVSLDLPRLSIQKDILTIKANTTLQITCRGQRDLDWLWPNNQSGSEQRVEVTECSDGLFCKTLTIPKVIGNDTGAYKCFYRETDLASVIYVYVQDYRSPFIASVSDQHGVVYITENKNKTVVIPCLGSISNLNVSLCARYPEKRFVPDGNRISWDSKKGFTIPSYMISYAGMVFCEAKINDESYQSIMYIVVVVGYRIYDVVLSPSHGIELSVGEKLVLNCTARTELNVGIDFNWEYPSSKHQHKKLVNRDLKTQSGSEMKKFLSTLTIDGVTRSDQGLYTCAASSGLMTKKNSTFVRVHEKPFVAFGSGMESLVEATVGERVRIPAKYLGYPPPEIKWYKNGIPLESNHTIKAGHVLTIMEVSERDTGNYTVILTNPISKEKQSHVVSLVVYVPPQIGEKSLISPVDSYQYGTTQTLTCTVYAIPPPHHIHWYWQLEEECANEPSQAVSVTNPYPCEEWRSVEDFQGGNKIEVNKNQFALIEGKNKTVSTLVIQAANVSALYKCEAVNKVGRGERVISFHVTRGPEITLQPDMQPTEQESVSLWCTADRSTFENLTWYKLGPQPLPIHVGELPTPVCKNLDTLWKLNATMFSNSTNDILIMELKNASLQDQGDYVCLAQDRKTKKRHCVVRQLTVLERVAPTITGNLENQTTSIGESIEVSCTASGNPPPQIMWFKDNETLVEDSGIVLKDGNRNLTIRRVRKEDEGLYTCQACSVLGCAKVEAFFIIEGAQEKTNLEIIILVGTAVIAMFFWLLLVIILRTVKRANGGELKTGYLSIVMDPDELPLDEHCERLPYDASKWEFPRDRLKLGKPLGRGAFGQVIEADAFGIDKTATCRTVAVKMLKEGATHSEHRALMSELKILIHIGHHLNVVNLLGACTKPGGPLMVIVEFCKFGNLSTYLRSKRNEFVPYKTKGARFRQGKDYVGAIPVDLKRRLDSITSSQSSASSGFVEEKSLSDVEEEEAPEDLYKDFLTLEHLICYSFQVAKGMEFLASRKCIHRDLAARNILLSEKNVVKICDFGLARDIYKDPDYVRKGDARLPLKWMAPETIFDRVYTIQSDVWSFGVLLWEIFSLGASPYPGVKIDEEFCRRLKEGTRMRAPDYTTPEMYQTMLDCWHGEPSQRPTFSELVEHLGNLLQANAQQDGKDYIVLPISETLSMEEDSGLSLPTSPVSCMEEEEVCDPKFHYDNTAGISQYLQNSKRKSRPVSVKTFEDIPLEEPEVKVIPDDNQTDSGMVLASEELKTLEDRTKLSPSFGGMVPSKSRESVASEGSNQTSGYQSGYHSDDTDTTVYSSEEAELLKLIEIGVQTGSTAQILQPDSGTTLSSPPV
Experimental: This assay determines the ability of a test compound to inhibit the autophosphorylation of KDR in porcine aorta endothelial (PAE)-KDR cells. PAE cells that overexpress human KDR were used in this assay. The cells were cultured in Ham's F12 media supplemented with 10% fetal bovine serum (FBS) and 400 ug/mL G418. Thirty thousands cells were seeded into each well of a 96-well plate in 75 μL of growth media and allowed to attach for 6 hours at 37° C. Cells were then exposed to the starvation media (Ham's F12 media supplemented with 0.1% FBS) for 16 hours. After the starvation period was over, 10 μL of test agent in 5% DMSO in starvation media were added to the test wells and 10 μL of the vehicle (5% DMSO in starvation media) were added into the control wells. The final DMSO concentration in each well was 0.5%. Plates were incubated at 37° C. for 1 hour and the cells were then stimulated with 500 ng/ml VEGF (commercially available from R & D System) in the presence of 2 mM Na3VO4 for 8 minutes. The cells were washed once with 1 mm Na3VO4 in HBSS and lysed by adding 50 μL per well of lysis buffer. One hundred μL of dilution buffer were then added to each well and the diluted cell lysate was transferred to a 96-well goat ant-rabbit coated plate (commercially available from Pierce) which was pre-coated with Rabbit anti Human Anti-flk-1 C-20 antibody (commercially available from Santa Cruz). The plates were incubated at room temperature for 2 hours and washed seven times with 1% Tween 20 in PBS. HRP-PY20 (commercially available from Santa Cruz) was diluted and added to the plate for a 30-minute incubation. Plates were then washed again and TMB peroxidase substrate (commercially available from Kirkegaard & Perry) was added for a 10-minute incubation. One hundred μL of 0.09 N H2SO4 was added to each well of the 96-well plates to stop the reaction. Phosphorylation status was assessed by spectrophotometer reading at 450 nm. IC50 values were calculated by curve fitting using a four-parameter analysis.

PDGFRβ = molecular target: T3, PDGFRβ (Homo sapiens, UniProt P09619); test: PAE-PDGFRβ phosphorylation in PAE-PDGFRB cells assay; type: cell-based; details: PAE cells overexpressing human PDGFRβ, PDGF-BB stimulated; read-out: PAE PDGFR autophos IC50
T3 construct: expressed in transfected cells; host or cells: porcine aorta endothelial (PAE) cells
T3 sequence (P09619 33-1106): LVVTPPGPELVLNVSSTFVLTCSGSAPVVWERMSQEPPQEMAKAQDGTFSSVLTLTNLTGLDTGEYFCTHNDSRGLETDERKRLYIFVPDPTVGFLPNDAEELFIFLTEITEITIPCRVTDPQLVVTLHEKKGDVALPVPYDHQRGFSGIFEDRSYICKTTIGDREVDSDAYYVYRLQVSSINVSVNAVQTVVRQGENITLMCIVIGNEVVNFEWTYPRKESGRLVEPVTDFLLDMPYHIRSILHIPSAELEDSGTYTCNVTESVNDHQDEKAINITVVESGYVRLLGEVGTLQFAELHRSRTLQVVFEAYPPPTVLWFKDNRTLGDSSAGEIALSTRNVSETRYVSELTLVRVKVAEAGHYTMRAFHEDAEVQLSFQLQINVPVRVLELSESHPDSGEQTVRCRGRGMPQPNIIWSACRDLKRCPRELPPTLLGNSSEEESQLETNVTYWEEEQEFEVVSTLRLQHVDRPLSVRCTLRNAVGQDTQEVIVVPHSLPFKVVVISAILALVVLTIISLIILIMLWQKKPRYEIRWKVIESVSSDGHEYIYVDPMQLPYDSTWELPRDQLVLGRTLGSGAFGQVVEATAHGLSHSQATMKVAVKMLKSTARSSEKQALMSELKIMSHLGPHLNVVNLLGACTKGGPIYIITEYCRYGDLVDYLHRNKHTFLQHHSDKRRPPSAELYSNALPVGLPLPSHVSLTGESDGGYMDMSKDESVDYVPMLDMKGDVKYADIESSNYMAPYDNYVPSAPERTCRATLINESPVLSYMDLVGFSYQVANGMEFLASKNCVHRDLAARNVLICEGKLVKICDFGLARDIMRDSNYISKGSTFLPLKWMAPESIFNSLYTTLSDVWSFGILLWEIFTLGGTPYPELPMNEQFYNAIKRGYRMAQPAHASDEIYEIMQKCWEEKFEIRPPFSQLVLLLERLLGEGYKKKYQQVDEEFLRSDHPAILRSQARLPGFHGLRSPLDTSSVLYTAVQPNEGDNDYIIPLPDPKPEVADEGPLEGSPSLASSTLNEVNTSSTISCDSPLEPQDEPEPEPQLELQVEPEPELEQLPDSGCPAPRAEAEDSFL
Outline: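 PAE cells overexpressing human PDGFRβ, serum-starved 16 h (0.1% FBS), compound 1 h at 37° C (0.5% DMSO), then 1 μg/mL PDGF-BB with 2 mM Na3VO4 for 8 min. Receptor captured by anti-PDGFRβ, phosphotyrosine detected by HRP-PY20/TMB at 450 nm; IC50 by four-parameter fit.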

HUVEC = test: bFGF HUVEC proliferation; type: cell-based, human; details: Homo sapiens, HUVEC, bFGF stimulated HUVEC

SMILES: CO[C@@H]1CCN(C(=O)c2cc3nccc(Oc4ccc5c(c4)cc(C)n5C(=O)NC4CC4)c3s2)C1 [Example 4k, 5-[2-(3R-Methoxy-pyrrolidine-1-carbonyl)-thieno[3,2-b]pyridin-7-yloxy]-2-methyl-indole-1-carboxylic acid cyclopropylamide]
Ki [1]: 0.1 nM
inhibition at 0.05 µM [1]: 96%
IC50 (KDR (VEGFR2)): 0.569 nM
IC50 (PDGFRβ): 10 nM
IC50 (HUVEC): 5.8 nM

SMILES: COC[C@@H]1CCCN1C(=O)c1cc2nccc(Oc3ccc4c(cc(C)n4C(=O)NC4CC4)c3F)c2s1 [Example 5b]
Ki [1]: 0.504 nM
inhibition at 0.05 µM [1]: 98%
IC50 (KDR (VEGFR2)): 0.5 nM
IC50 (PDGFRβ): 13.1 nM
IC50 (HUVEC): 13.6 nM

SMILES: CCCNC(=O)n1c(C)cc2cc(Oc3ccnc4cc(C(=O)N5CC[C@H](OC)C5)sc34)ccc21 [Example 9d, 5-[2-(3S-Methoxy-pyrrolidine-1-carbonyl)-thieno[3,2-b]pyridin-7-yloxy]-2-methyl-indole-1-carboxylic acid propylamide]
Ki [1]: 0.228 nM
inhibition at 0.05 µM [1]: 99%
IC50 (KDR (VEGFR2)): 1.47 nM
IC50 (PDGFRβ): 25 nM
IC50 (HUVEC): 143 nM

SMILES: C#CCNC(=O)n1c(C)cc2cc(Oc3ccnc4cc(C(=O)N5CC[C@H](O)C5)sc34)ccc21 [Example 9j, 5-[2-(3S-Hydroxy-pyrrolidine-1-carbonyl)-thieno[3,2-b]pyridin-7-yloxy]-2-methyl-indole-1-carboxylic acid prop-2-ynylamide]
Ki [1]: 0.162 nM
inhibition at 0.05 µM [1]: 97%
IC50 (PDGFRβ): 18 nM and 20 nM
IC50 [3]: 0.29 nM
IC50 (HUVEC): 81 nM

SMILES: CCC(=O)n1c(C)cc2cc(Oc3ccnc4cc(C(=O)N5CC[C@H](OC)C5)sc34)ccc21 [Example 10a, 2-{[(3S)-3-Methoxypyrrolidin-1-yl]carbonyl}-7-[(2-methyl-1-propionyl-1H-indol-5-yl)oxy]thieno[3,2-b]pyridine]
Ki [1]: 4.7 nM
inhibition at 0.05 µM [1]: 64%
IC50 (KDR (VEGFR2)): 1.2 nM
IC50 [3]: 0.79 nM
IC50 (HUVEC): 21 nM

SMILES: CNC(=O)n1ccc2cc(Oc3ccnc4cc(-c5nc(C(C)(C)O)cs5)sc34)ccc21 [Example 31, 5-{2-[4-(1-Hydroxy-1-methyl-ethyl)-thiazol-2-yl]-thieno[3,2-b]pyridin-7-yloxy}-indole-1-carboxylic acid methylamide]
Ki [1]: 0.462 nM
inhibition at 0.05 µM [1]: 97%
IC50 (PDGFRβ): 8.1 nM and 6.3 nM
IC50 [3]: 0.16 nM
IC50 (HUVEC): 101 nM

The next lines start with results.

inhibition at 0.05 µM [1]: 2%
AUC (Mouse PK assay): 10.6 µg·h/mL
Cmax (Mouse PK assay): 7.7 µg/mL
Mouse Cmin, po (Mouse PK assay): 0.163 µg/mL
% remain (HLM-NADPH, 0.5 h) [2]: 70.9%
% remain (HLM-UDPGA, 0.5 h) [2]: 119.4%
SMILES: Cc1cc2cc(Nc3ccnc4cc(-c5nccn5C)sc34)ccc2n1C(=O)NC(C)C [Example 2f, 5-(2-[1-methyl-1H-imidazol-2-yl]thieno[3,2-b]pyridin-7-ylamino)-2-methylindole-1-carboxylic acid isopropylamide]

Ki [1]: 29.6 nM
inhibition at 0.05 µM [1]: 82%
AUC (Mouse PK assay): 0.542 µg·h/mL
Cmax (Mouse PK assay): 0.252 µg/mL
Mouse Cmin, po (Mouse PK assay): 0.006 µg/mL
% remain (HLM-NADPH, 0.5 h) [2]: 106%
% remain (HLM-UDPGA, 0.5 h) [2]: 113.4%
SMILES: Cc1cc2cc(Nc3ccnc4cc(C(=O)N5CCC[C@H]5CO)sc34)ccc2n1C(=O)NC(C)C [Example 2g, 5-(2-[(S)-2-(hydroxymethyl)pyrrolidine-1-carbonyl]thieno[3,2-b]pyridin-7-ylamino)-2-methylindole-1-carboxylic acid isopropylamide]
IC50 [3]: > 33.3 nM

Ki [1]: 0.143 nM
inhibition at 0.05 µM [1]: 98%
IC50 (PDGFRβ): 13 nM
SMILES: C#CCNC(=O)n1c(C)cc2cc(Oc3ccnc4cc(C(=O)N5CCC[C@@H]5COC)sc34)ccc21 [Example 8p, 5-[2-(2R-Methoxymethyl-pyrrolidine-1-carbonyl)-thieno[3,2-b]pyridin-7-yloxy]-2-methyl-indole-1-carboxylic acid prop-2-ynylamide]
IC50 [3]: 0.137 nM
IC50 (HUVEC): 197 nM
